Legend:
[1] = test system: anti-C-peptide antibody PEP001; assay: QCM displacement immunoassay, ligand immobilized on Au-surface, antibody PEP001; type: binding; conditions: for QCM frequency change on addition of sample containing WT-C-peptide (displacement of the ligand, release of antibody-C-peptide-complex): streptavidin/ligand/PEP001 assembly on Au-surface
Source text: An Au-substrate is covered with a self-assembled monolayer (SAM). This self-assembled monolayer protects the surface from unspecific adsorption of peptides or proteins. Part of the SAM molecules is coupled with biotin, which is exposed on the surface. To this surface the biotin binding protein streptavidin is applied and bound by the biotin moieties. Since streptavidin has a plurality of binding sides for biotin, a ligand labeled with biotin can be bound to the streptavidin. Finally, anti-C-peptide antibody PEP001 is added, which binds to the ligand forming an immobilized antibody-ligand-complex, which is schematically depicted in FIG. 2. The stepwise build-up of an immobilized antibody-ligand-complex on the Au-surface can be monitored using a Quartz Crystal Microbalance (QCM). […] Referring to FIG. 3, attachment of streptavidin and Mut6-C-peptide results in a frequency shift of about −20 Hz. The binding of antibody PEP001 to the ligand Mut6-C-peptide results in a frequency shift of about >−50 Hz.
Addition of a sample containing C-peptide results in displacement of the ligand by wild type C-peptide and release of a C-peptide-antibody-complex as schematically shown in FIG. 2.
A quantitative determination of the amount of C-peptide within a sample can be achieved by calibrating the assay using solutions having known C-peptide concentrations. The amount of frequency shift observed for a sample indicates the quantitative amount of C-peptide being present within that sample.
An immunoassay as described in Example 1 was provided except that Mut3-C-peptide, Mut2-C-peptide or Mut5-C-peptide were used as ligand.
As described in Example 1, a SAM/biotin/streptavidin/biotin-ligand/antibody-complex is immobilized on an Au-surface. In this Example the ligand was C-peptide mutant B10-25_Mut3, the antibody was PEP001.
Immobilization of a ligand to a surface can also be performed using a linker (instead of a self-assembling monolayer). A suitable linker is for example a cysteine linker. In this configuration immobilization of an antibody via an antibody-ligand-complex to the surface can be detected by measuring impedance. A ligand having the sequence N-[…]-C(SEQ ID NO:7) was directly immobilized on an Au-surface. Additionally, 6-ferrocenyl-1-hexanethiol was bound to the Au surface for enhanced impedance measurement. Unspecific protein binding to the surface was avoided by incubation with a polyethylene glycol (ML-PEG) and bovine serum albumin (BSA).

[2] = test system: anti-C-peptide antibody CPT-3-F11; assay: QCM displacement immunoassay, ligand immobilized on Au-surface, antibody CPT-3-F11; type: binding

N-CGSGSGSGS-VELGGGPGAGSLAPLA-C (CGSGSGSGSVELGGGPGAGSLAPLA; variant C-peptide Mut6-Cys) [SEQ ID NO:7, AA10-25; Q(22) to A and including a cysteine linker]
QCM frequency change on addition of PEP001 antibody ([1]; ligand directly immobilized on Au-surface via cysteine linker): considerable negative shift of the frequency | effect of addition of WT-C-peptide on bound antibody ([1]; ligand directly immobilized on Au-surface via cysteine linker, QCM): release of the bound antibody

N-GQVECGGGPG-C (variant C-peptide Mut18) [Mut18-C-peptide, C-peptide variant AA8-17; L(12)to C]
QCM frequency change on addition of sample containing WT-C-peptide (displacement of the ligand) ([2]; antibody CPT-3-F11): considerable frequency increase | frequency shift on addition of anti-C-peptide antibody CPT-3-F11 ([2]; streptavidin/ligand assembly on Au-surface): ~−30 Hz

N-VELGGGPGAGSIQPLA-C (variant C-peptide Mut3) [Mut3-C-peptide, C-peptide variant AA10-25; L(21)to I]
QCM frequency change on addition of sample containing WT-C-peptide (displacement of the ligand, release of antibody-C-peptide-complex) ([1]; QCM): considerable frequency increase | QCM frequency change on adding WT-C-peptide (release of antibody-WT-C-peptide-complex) ([1]; continuous assay, 500 ng/ml WT-C-peptide, antibody PEP001): positive frequency shift

N-VELGGGPGAGSLAPLA-C (variant C-peptide Mut6) [Mut6-C-peptide, C-peptide variant AA10-25; Q(22)to A]
frequency shift on binding of antibody PEP001 to the ligand ([1]; QCM, biotin-labeled ligand on SAM/biotin/streptavidin Au-surface, negative shift = mass increase): > −50 Hz | QCM frequency change on addition of sample containing WT-C-peptide (displacement of the ligand, release of antibody-C-peptide-complex) ([1]; QCM): observable positive frequency shift
